In ChEMBL document CHEMBL5500404, “Discovery and Development of NLRP3 Inhibitors Targeting the LRR Domain to Disrupt NLRP3-NEK7 Interaction for the Treatment of Rheumatoid Arthritis” (J Med Chem, 2024):
The source made the active and inactive calls. The calls are words filed in the database; no cut-off is given here.

Columns and labels:
[1] = Cytotoxicity against human THP-1 cells assessed as cellular proliferation inhibition measured after 48 hrs by MTT assay; type: toxicity, cell-based
[2] = tested on: THP-M; assay: Inhibition of NLRP3 and […] protein-protein interaction in human THP-M cells assessed as suppression activation of NLRP3 inflammasome by affecting ASC oligomerization at 10 to 50 uM pretreated for 24 hrs followed by stimulated with LPS for 3 hrs and ATP for 1 hr by co-IP analysis; type: cell-based; details: dose 10-50 µM, time 28.0 hrs
[3] = Half life in Sprague-Dawley rat at 20 mg/kg, IG measured upto 1440 mins by LC-MS/MS analysis; type: ADME, organism-based; details: in vivo, po
[4] = Tmax in Sprague-Dawley rat at 20 mg/kg, IG measured upto 1440 mins by LC-MS/MS analysis; type: ADME, organism-based; details: in vivo, po
[5] = Cmax in Sprague-Dawley rat at 20 mg/kg, IG measured upto 1440 mins by LC-MS/MS analysis; type: ADME, organism-based; details: in vivo, po
[6] = AUC (0 to t) in Sprague-Dawley rat at 20 mg/kg, IG measured upto 1440 mins by LC-MS/MS analysis; type: ADME, organism-based; details: in vivo, po
[7] = AUC (0 to infinity) in Sprague-Dawley rat at 20 mg/kg, IG measured upto 1440 mins by LC-MS/MS analysis; type: ADME, organism-based; details: in vivo, po
[8] = MRT (0 to t) in Sprague-Dawley rat at 20 mg/kg, IG measured upto 1440 mins by LC-MS/MS analysis; type: ADME, organism-based; details: in vivo, po
[9] = MRT (0 to infinity) in Sprague-Dawley rat at 20 mg/kg, IG measured upto 1440 mins by LC-MS/MS analysis; type: ADME, organism-based; details: in vivo, po
[10] = Apparent clearance during terminal phase in Sprague-Dawley rat at 20 mg/kg, IG measured upto 1440 mins by LC-MS/MS analysis; type: ADME, organism-based; details: in vivo, po
[11] = Apparent volume of distribution during terminal phase in Sprague-Dawley rat at 20 mg/kg, IG measured upto 1440 mins by LC-MS/MS analysis; type: ADME, organism-based; details: in vivo, po, read-out: Vz/F
[12] = Half life in Sprague-Dawley rat at 20 mg/kg, ip measured upto 720 mins by LC-MS/MS analysis; type: ADME, organism-based; details: in vivo
[13] = AUC (0 to t) in Sprague-Dawley rat at 20 mg/kg, ip measured upto 720 mins by LC-MS/MS analysis; type: ADME, organism-based; details: in vivo
[14] = AUC (0 to infinity) in Sprague-Dawley rat at 20 mg/kg, ip measured upto 720 mins by LC-MS/MS analysis; type: ADME, organism-based; details: in vivo, 12 h
[15] = MRT (0 to t) in Sprague-Dawley rat at 20 mg/kg, ip measured upto 720 mins by LC-MS/MS analysis; type: ADME, organism-based; details: in vivo
[16] = MRT (0 to infinity) in Sprague-Dawley rat at 20 mg/kg, ip measured upto 720 mins by LC-MS/MS analysis; type: ADME, organism-based; details: in vivo
[17] = Apparent volume of distribution during terminal phase in Sprague-Dawley rat at 20 mg/kg, ip measured upto 720 mins by LC-MS/MS analysis; type: ADME, organism-based; details: in vivo, read-out: Vz/F
[18] = Bioavailability in Sprague-Dawley rat at 20 mg/kg, ip measured upto 720 mins by LC-MS/MS analysis; type: ADME, organism-based; details: in vivo
[19] = tested on: Rattus norvegicus; assay: Anti-inflammatory activity against complete Freund's adjuvant (CFA)-induced arthritis rat model assessed as synovial hyperplasia in rat synovium from the left rear ankle at 10 mg/kg, ip treated after 17 days of CFA challenge measured after 18 days (day 17 to 34) by H and E staining based assay relative to model group; type: functional, organism-based; details: time 18.0 day

| SMILES | IC50 at 48 h [1] [µM] | further results |
| --- | --- | --- |
| COCCCNC(=O)c1ccc(Cn2c(SCc3cccnc3)nc3ccncc32)cc1 | > 100 | – |
| COCCCNC(=O)c1ccc(Cn2c(SCc3ccc(OC)cc3)nc3ccncc32)cc1 | > 100 | – |
| COCCCNC(=O)c1ccc(Cn2c(SCc3cc(C)cc(C)c3)nc3ccncc32)cc1 | > 100 | – |
| COCCCNC(=O)c1ccc(Cn2c(SCc3ccc(Br)cc3)nc3ccncc32)cc1 | 90.3 | – |
| COCCCNC(=O)c1ccc(Cn2c(SCc3ccc(C(F)(F)F)cc3)nc3ccncc32)cc1 | 51.1 | – |
| COCCCNC(=O)c1ccc(Cn2c(SCc3ccc(F)nc3)nc3ccncc32)cc1 | > 100 | – |
| CCOCCCNC(=O)c1ccc(CSc2nc3ccncc3n2Cc2cccc(OC)c2)cc1 | > 100 | – |
| CC(C)c1ccc(Cn2c(SCC3CCCCC3)nc3ccncc32)cc1 | 77.3 | – |
| COCCCNC(=O)c1ccc(Cn2c(SCc3ccccc3)nc3ccncc32)cc1 | > 100 | – |
| COCCCNC(=O)c1ccc(Cn2c(SCc3cccc(F)c3)nc3ccncc32)cc1 | > 100 | – |
| COCCCNC(=O)c1ccc(Cn2c(SCc3ccc(C#N)cc3)nc3ccncc32)cc1 | > 100 | – |
| CCCC(=O)Nc1ccc(Cn2c(SCC3CCCCC3)nc3ccncc32)cc1 | > 100 | – |
| COc1ccc(C2=NN(C(=O)CSc3nnc(CNC(=O)COc4ccccc4)n3CCc3ccccc3)C(c3ccc(OC)cc3)C2)cc1 (configuration not stated) | > 100 | – |
| COCCCNC(=O)c1ccc(Cn2c(SCc3cc(F)cc(F)c3)nc3ccncc32)cc1 | > 100 | – |
| COCCCNC(=O)c1ccc(Cn2c(SCc3cccc([N+](=O)[O-])c3)nc3ccncc32)cc1 | > 100 | – |
| CCC(=O)Nc1ccc(Cn2c(SCC3CCCCC3)nc3ccncc32)cc1 | > 100 | – |
| CCCNC(=O)c1ccc(Cn2c(SCC3CCCCC3)nc3ccncc32)cc1 | > 100 | – |
| CC(=O)Nc1ccc(Cn2c(SCC3CCCCC3)nc3ccncc32)cc1 | > 100 | – |
| COCCCNC(=O)c1ccc(Cn2c(SCc3ccncc3)nc3ccncc32)cc1 | > 100 | – |
| O=C(c1ccc(Cn2c(SCC3CCCCC3)nc3ccncc32)cc1)N1CCCC1 | > 100 | – |
| COCCCNC(=O)c1ccc(Cn2c(SCC3CCCC3)nc3ccncc32)cc1 | > 100 | – |
| CNC(=O)CCn1c(SCC2CCCCC2)nc2ccncc21 | > 100 | – |
| COc1ccc(N2CCN(CCCNC(=O)COCc3cc(-c4ccc5c(c4)OCO5)on3)CC2)cc1 | 85.2 | – |
| CCOCCCNC(=O)c1ccc(CSc2nc3ccncc3n2Cc2cccc(F)c2)cc1 | > 100 | – |
| CCOC(=O)c1ccc(Cn2c(SCC3CCCCC3)nc3ccncc32)cc1 | > 100 | inhibition [2]: Active |
| O=C(c1ccc(Cn2c(SCC3CCCCC3)nc3ccncc32)cc1)N1CCNCC1 | > 100 | half-life [3]: 3.93 h; Tmax [4]: 0.245 h; Cmax [5]: 280 ng/mL; AUC(0-t) at 24 h [6]: 733 ng·h/mL; AUC(0-inf) [7]: 906 ng·h/mL; MRT last at 24 h [8]: 2.89 h; MRT inf [9]: 4.86 h; CL/F [10]: 500 mL/min/kg; Vd/F [11]: 193 L/kg; half-life [12]: 1.11 h; AUC(0-t) at 12 h [13]: 1320 ng·h/mL; AUC [14]: 103322 ng·min/mL; MRT last at 12 h [15]: 0.615 h; MRT inf [16]: 1.32 h; Vd/F [17]: 4.96 L/kg; bioavailability [18]: 13.2% |
| CCCc1ccc(Cn2c(SCC3CCCCC3)nc3ccncc32)cc1 | 87.6 | – |

| SMILES | IC50 at 48 h [1] [µM] | further results |
| --- | --- | --- |
| COCCCNC(=O)c1ccc(Cn2c(SCC3CC3)nc3ccncc32)cc1 | > 100 | – |
| CCCNC(=O)CCCCn1c(=O)c2ccccc2n(CC(=O)NCc2ccc(F)cc2)c1=O | > 100 | – |
| CC(C)OCCCn1c(=O)c2ccccc2n2c(CCC(=O)NCc3ccccc3)nnc12 | 65.5 | – |
| COCCCNC(=O)c1ccc(Cn2c(SCc3ccc([N+](=O)[O-])cc3)nc3ccncc32)cc1 | > 100 | – |
| COCCCNC(=O)c1ccc(Cn2c(SCc3ccc(Cl)cc3)nc3ccncc32)cc1 | 23 | – |
| O=C(c1ccc(Cn2c(SCC3CCCCC3)nc3ccncc32)cc1)N1CCOCC1 | > 100 | – |
| CCOc1ccc(CCNC(=O)Cn2nc(-c3ccc(C)c(S(=O)(=O)N4CCCCC4)c3)c3ccccc3c2=O)cc1OCC | > 100 | – |
| O=C(c1ccccc1)c1ccc(Cn2c(SCC3CCCCC3)nc3ccncc32)cc1 | 72.4 | – |
| COCCCNC(=O)c1ccc(Cn2c(SCc3cccc(C)c3)nc3ccncc32)cc1 | > 100 | – |
| COC(=O)CCCCn1c(SCC2CCCCC2)nc2ccncc21 | > 100 | – |
| CCCCCNC(=O)c1ccc(Cn2c(SCC3CCCCC3)nc3ccncc32)cc1 | 87.5 | – |
| COc1ccc(-c2[nH]c3ccccc3c2SCCNC(=O)c2ccc(S(=O)(=O)N3CCOCC3)cc2)cc1 | > 100 | – |
| CNC(=O)c1ccc(Cn2c(SCC3CCCCC3)nc3ccncc32)cc1 | > 100 | – |
| CCNC(=O)c1ccc(Cn2c(SCC3CCCCC3)nc3ccncc32)cc1 | > 100 | – |
| COCCCNC(=O)c1ccc(Cn2c(SCc3ccccc3F)nc3ccncc32)cc1 | 53.3 | – |
| CC(C)(O)c1coc(S(=O)(=O)NC(=O)Nc2c3c(cc4c2CCC4)CCC3)c1 | > 100 | Activity [19]: Active |
| COc1ccc(N2CCN(CCCNC(=O)c3nnc(Cc4ccc(F)cc4)o3)CC2)cc1 | > 100 | – |
| CC(C)(C)c1ccc(Cn2c(SCC3CCCCC3)nc3ccncc32)cc1 | 93.5 | – |
| COCCCNC(=O)c1ccc(Cn2c(SCc3ccc(C)cc3)nc3ccncc32)cc1 | > 100 | – |
| NC(=O)c1ccc(Cn2c(SCC3CCCCC3)nc3ccncc32)cc1 | > 100 | – |
| COCCCNC(=O)c1ccc(Cn2c(SCc3ccc(F)cc3)nc3ccncc32)cc1 | > 100 | – |
| COCCCNC(=O)c1ccc(Cn2c(SCc3ccccn3)nc3ccncc32)cc1 | > 100 | – |
| COCCNC(=O)c1ccc(Cn2c(SCC3CCCCC3)nc3ccncc32)cc1 | 96.3 | – |
| COCCCNC(=O)c1ccc(Cn2c(SCC3CCC3)nc3ccncc32)cc1 | > 100 | – |
| COC(=O)c1ccc(Cn2c(SCC3CCCCC3)nc3ccncc32)cc1 | > 100 | – |
| CCCCNC(=O)c1ccc(Cn2c(SCC3CCCCC3)nc3ccncc32)cc1 | > 100 | – |
| COCCCNC(=O)c1ccc(Cn2c(SCC=C(C)C)nc3ccncc32)cc1 | > 100 | – |
